According to publication PMC10435442, “Developing multitarget coumarin based anti-breast cancer agents: synthesis and molecular modeling study” (Scientific Reports, 2023):
Values after ≈ are worked out from the molar mass of the structure shown. Values joined by “and” are separate entries in the source; they are usually repeats but may differ in a detail not shown here. Equal values may be shown once. Read-outs that look alike come from different tables or passages of the source.

How the values were obtained:
MCF-10A = assay: MTT cytotoxicity assay, nonmalignant MCF-10A; conditions: read-out: MCF-10A IC50; MTT, nonmalignant MCF-10A;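 further: MTT assay with absorbance read at 570 nm after 48 h exposure of cells to serial compound concentrations at 37 °C, testing selectivity against nonmalignant versus cancer cells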
in vitro = conditions: human, MCF-10A cells (nonmalignant breast)
MDA-MB-231 [1] = assay: Annexin V-FITC/PI dual staining apoptosis assay, MDA-MB-231; assay type: cell-based, human; conditions: for % Apoptosis Early / % Apoptosis Late / % Apoptosis Total / % Necrosis: MDA-MB-231
Bcl-2 = Bcl-2 level (ELISA) in treated cells; assay type: cell-based, human; conditions: MDA-MB-231 cells
MDA-MB-231 [2] = assay: MTT cytotoxicity assay, MDA-MB-231; conditions: for IC50: Homo sapiens; for % viability: MDA
EGFR = EGFR (Homo sapiens, UniProt P00533); assay: In vitro EGFR enzyme inhibition assay (ELISA); conditions: for inhibition at 10 pg/mL / inhibition at 0.0001 µg/mL / inhibition at 0.001 µg/mL / inhibition at 0.01 µg/mL: read-out: EGFR %inh
Chain of EGFR (P00533 25-1210): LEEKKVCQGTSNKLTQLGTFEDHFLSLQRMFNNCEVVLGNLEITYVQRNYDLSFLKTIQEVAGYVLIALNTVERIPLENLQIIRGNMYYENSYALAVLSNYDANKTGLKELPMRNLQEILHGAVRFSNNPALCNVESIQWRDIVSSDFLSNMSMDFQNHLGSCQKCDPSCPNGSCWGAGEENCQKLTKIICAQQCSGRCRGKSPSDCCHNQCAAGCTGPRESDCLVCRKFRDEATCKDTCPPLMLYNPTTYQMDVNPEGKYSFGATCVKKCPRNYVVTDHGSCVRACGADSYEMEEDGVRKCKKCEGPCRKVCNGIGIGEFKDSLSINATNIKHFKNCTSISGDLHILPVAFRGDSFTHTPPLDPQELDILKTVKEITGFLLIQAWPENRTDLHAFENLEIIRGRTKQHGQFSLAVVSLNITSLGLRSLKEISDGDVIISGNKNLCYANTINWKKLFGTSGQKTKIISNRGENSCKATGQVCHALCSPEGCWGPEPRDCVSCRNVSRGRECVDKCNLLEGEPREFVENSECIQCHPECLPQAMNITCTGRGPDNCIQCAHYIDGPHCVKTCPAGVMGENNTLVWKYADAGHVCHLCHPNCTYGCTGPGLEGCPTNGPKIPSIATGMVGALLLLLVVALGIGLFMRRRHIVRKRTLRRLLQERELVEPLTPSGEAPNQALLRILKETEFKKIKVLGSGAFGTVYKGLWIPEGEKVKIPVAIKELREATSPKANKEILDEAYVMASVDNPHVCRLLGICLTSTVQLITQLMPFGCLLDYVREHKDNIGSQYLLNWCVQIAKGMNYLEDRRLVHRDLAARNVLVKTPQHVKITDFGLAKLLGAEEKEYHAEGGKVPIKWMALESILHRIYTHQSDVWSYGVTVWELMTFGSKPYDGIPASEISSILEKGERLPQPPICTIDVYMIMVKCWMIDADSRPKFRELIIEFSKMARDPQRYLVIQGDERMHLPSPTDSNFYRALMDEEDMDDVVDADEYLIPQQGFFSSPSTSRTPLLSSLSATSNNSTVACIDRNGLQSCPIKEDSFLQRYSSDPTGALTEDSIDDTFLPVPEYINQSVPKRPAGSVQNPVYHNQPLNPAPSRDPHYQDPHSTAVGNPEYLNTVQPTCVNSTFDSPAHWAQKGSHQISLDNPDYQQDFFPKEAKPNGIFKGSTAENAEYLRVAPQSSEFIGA

MDA-MB-231 [3] = assay: DNA flow cytometric cell cycle analysis, MDA-MB-231; assay type: cell-based, human; conditions: for cell cycle arrest at S phase / increase of apoptotic cells in pre-G1 phase: MDA-MB-231, compared to control
MCF-7 = assay: MTT cytotoxicity assay, MCF-7; conditions: for IC50: Homo sapiens
Bax = Bax level (ELISA) in treated cells; assay type: cell-based, human; conditions: MDA-MB-231 cells
Caspase-9 = Caspase-9 level (ELISA) in treated cells; assay type: cell-based, human; conditions: MDA-MB-231 cells
[4] = MDA-MB-231, read-out: MDA-MBA-231 IC50
[5] = MDA-MB-231, read-out: cytotoxicity_IC50 MDA
[6] = EGFR IC50, lab report 01-09-2021, 04 compounds, reference Erlotinib
[7] = MCF7, read-out: cytotoxicity_IC50 mcf7

COc1ccccc1C(=O)OCc1cc(=O)oc2cc(OCC(=O)c3ccc(Cl)cc3)ccc12 [Compound 12, {7-[2-(4-Chlorophenyl)-2-oxoethoxy]-2-oxo-2H-chromen-4-yl}methyl 2-methoxybenzoate]
IC50 (MCF-10A): 72100 ± 1680 nM
IC50 at 48 h (in vitro): 34.5 ± 1.68 µg/mL (≈ 72 µM)
viability at 48 h, 0.4 ug (in vitro): 81.4%
viability at 48 h, 1.6 ug (in vitro): 75.8%
viability at 48 h, 6.25 ug (in vitro): 62.5%
viability at 48 h, 25 ug (in vitro): 55%
viability at 48 h, 100 ug (in vitro): 39.6%
Apoptosis Early (MDA-MB-231 [1]; MDA): 16.75
Apoptosis Late (MDA-MB-231 [1]; MDA): 23.02
Apoptosis Total (MDA-MB-231 [1]; MDA): 46.28
Necrosis (MDA-MB-231 [1]; MDA): 6.51
% Apoptosis Early (MDA-MB-231 [1]): 16.75^beg %
% Apoptosis Late (MDA-MB-231 [1]): 23.02^eg %
% Apoptosis Total (MDA-MB-231 [1]): 46.28% and 46.28^be %
% Necrosis (MDA-MB-231 [1]): 6.51%
Bcl-2 Conc (Bcl-2): 2.934±0.154^be ng/ml
IC50 (MDA-MB-231 [2]; [4]): 3500 ± 90 nM
IC50 (MDA-MB-231 [2]; [5]): 1.71 ± 0.09 µg/mL
% viability (MDA-MB-231 [2]; 0.4ug (log conc. -0.41)): 56.517%
% viability (MDA-MB-231 [2]; 1.6ug (log conc. 0.19)): 51.229%
% viability (MDA-MB-231 [2]; 6.25ug (log conc. 0.8)): 44.231%
% viability (MDA-MB-231 [2]; 25ug (log conc. 1.4)): 36.538%
% viability (MDA-MB-231 [2]; 100ug (log conc. 2)): 26.8697%
IC50 (EGFR; [6]): 177 nM
IC50 (EGFR; EGFR inhibition IC50): 177 ± 1.8 nM
inhibition at 10 pg/mL (EGFR): 32%
inhibition at 0.0001 µg/mL (EGFR): 50%
inhibition at 0.001 µg/mL (EGFR): 73%
inhibition at 0.01 µg/mL (EGFR): 88%
Percentage above Reference IC50 (potency relative to erlotinib) (EGFR; reference Erlotinib): 81.92%
Comment (cell cycle phase of growth arrest) (MDA-MB-231 [3]; MDA): cell growth arrest@ G1/S
DNA content %G0-G1 (MDA-MB-231 [3]; MDA): 63.58%
DNA content %Pre-G1 (MDA-MB-231 [3]; MDA): 46.28%
DNA content %S (MDA-MB-231 [3]; MDA): 29.97%
%G0-G1 (MDA-MB-231 [3]; MDA-MB-231, IC50 concentration): 63.58^abc ^ADE %
%Pre-G1 (MDA-MB-231 [3]; MDA-MB-231, IC50 concentration): 46.28^cdg ^ABC %
%S (MDA-MB-231 [3]; MDA-MB-231, IC50 concentration): 29.97 ^BDF %
cell cycle arrest at S phase (MDA-MB-231 [3]): 1.08 folds
increase of apoptotic cells in pre-G1 phase (MDA-MB-231 [3]): 22.46 folds
IC50 (MCF-7; MCF7, read-out: MCF-7 IC50): 13200 ± 380 nM
IC50 (MCF-7; [7]): 6.33 ± 0.38 µg/mL
% viability (MCF-7; MCF7, 0.4ug): 65.22%
% viability (MCF-7; MCF7, 1.6ug): 57.537%
% viability (MCF-7; MCF7, 6.3ug): 50.147%
% viability (MCF-7; MCF7, 25ug): 44.457%
% viability (MCF-7; MCF7, 100ug): 33.0205%
Bax Conc (Bax): 0.36±0.0118^cef ng/ml
Caspase-9 Conc. (Caspase-9): 19.16±0.41^df ng/ml

CC(=O)Oc1ccc2c(COC(=O)c3ccc(Cl)cc3)cc(=O)oc2c1 [Compound 14, (7-Acetoxy-2-oxo-2H-chromen-4-yl)methyl 4-chlorobenzoate]
IC50 (MCF-10A): 263000 ± 4770 nM
IC50 at 48 h (in vitro): 97.9 ± 4.77 µg/mL (≈ 263 µM)
viability at 48 h, 0.4 ug (in vitro): 85.6%
viability at 48 h, 1.6 ug (in vitro): 77.6%
viability at 48 h, 6.25 ug (in vitro): 67.2%
viability at 48 h, 25 ug (in vitro): 59.5%
viability at 48 h, 100 ug (in vitro): 49.6%
% Apoptosis Early (MDA-MB-231 [1]): 23.61^ilmn %
% Apoptosis Late (MDA-MB-231 [1]): 13.22^hik %
% Apoptosis Total (MDA-MB-231 [1]): 41.02% and 41.02^gh %
% Necrosis (MDA-MB-231 [1]): 4.19%
Bcl-2 Conc (Bcl-2): 2.984±0.12^gh ng/ml
Bcl-2 FLD (fold versus control) (Bcl-2): 0.329 folds
selectivity against MDA-MB-231 than MCF-7 (MDA-MB-231 [2]): 150 times
IC50 (MDA-MB-231 [2]; [4]): 1900 ± 30 nM
IC50 (MDA-MB-231 [2]; [5]): 0.64 ± 0.03 µg/mL
% viability (MDA-MB-231 [2]; 0.4ug (log conc. -0.41)): 53.505%
% viability (MDA-MB-231 [2]; 1.6ug (log conc. 0.19)): 43.354%
% viability (MDA-MB-231 [2]; 6.25ug (log conc. 0.8)): 34.773%
% viability (MDA-MB-231 [2]; 25ug (log conc. 1.4)): 26.136%
% viability (MDA-MB-231 [2]; 100ug (log conc. 2)): 15.4795%
IC50 (EGFR; [6]): 2440 nM
IC50 (EGFR; EGFR inhibition IC50): 2440 ± 51 nM
inhibition at 10 pg/mL (EGFR): 18%
inhibition at 0.0001 µg/mL (EGFR): 24%
inhibition at 0.001 µg/mL (EGFR): 44%
inhibition at 0.01 µg/mL (EGFR): 78%
Percentage above Reference IC50 (potency relative to erlotinib) (EGFR; reference Erlotinib): 5.942%
%G0-G1 (MDA-MB-231 [3]; MDA-MB-231, IC50 concentration): 54.69^ikBD %
%G2/M (MDA-MB-231 [3]; MDA-MB-231, IC50 concentration): 7.09^dACDE %
%Pre-G1 (MDA-MB-231 [3]; MDA-MB-231, IC50 concentration): 41.02^iklmC %
%S (MDA-MB-231 [3]; MDA-MB-231, IC50 concentration): 38.22^ABE %
cell cycle arrest at S phase (MDA-MB-231 [3]): 1.38 folds
increase of apoptotic cells in pre-G1 phase (MDA-MB-231 [3]): 19.9 folds
IC50 (MCF-7; MCF7, read-out: MCF-7 IC50): 285000 ± 6410 nM
IC50 (MCF-7; [7]): 106 ± 6.41 µg/mL
% viability (MCF-7; MCF7, 0.4ug): 88.083%
% viability (MCF-7; MCF7, 1.6ug): 77.238%
% viability (MCF-7; MCF7, 6.3ug): 66.961%
% viability (MCF-7; MCF7, 25ug): 60.34%
% viability (MCF-7; MCF7, 100ug): 50.7566%
Bax Conc (Bax): 0.292±0.0106^ghi ng/ml
Bax FLD (fold versus control) (Bax): 4.9 folds
Caspase-9 Conc. (Caspase-9): 18.97±0.62^ghi ng/ml
Caspase-9 FLD (fold versus control) (Caspase-9): 4.37 folds
